pKi: −log10 of the molar value.
How the values were obtained:
CB1-PGS = CB1-PGS (Homo sapiens, UniProt P21554, DEL304-332/H302F/INS301[…]); experiment: Differential scanning fluorimetry on detergent-solubilized receptor; settings: 10 μM ligand
Protocol: Differential Scanning Fluorimetry (DSF) assays were performed in 96-well PCR plates using an RT-PCR machine (CFX96, Bio-Rad). Standard assay conditions (25 μL) were 25mM HEPES pH 7.5, 150 mM NaCl, 0.01% LMNG, 0.002% CHS and 10 μM corresponding ligands. The protein concentration was 2 μM and the BODIPY FL-L-cystine dye[38] was added at 2 μM final. All reactions were incubated at 4°C for 20 min before scanning in the PCR machine. The fluorescence was measured at 0.5°C temperature intervals from 4°C to 90°C by using the FAM filter set (450–490 nm excitation, 515–530 nm emission).

CB1 = molecular target: CB1; set-up: method as in PMID 17327489; settings: cited from earlier work
CB2 = molecular target: CB2; set-up: method as in PMID 17327489; settings: cited from earlier work

Chain of CB1-PGS (P21554 with tags, fused parts or gaps INS301[withheld]/H302F/DEL304-332): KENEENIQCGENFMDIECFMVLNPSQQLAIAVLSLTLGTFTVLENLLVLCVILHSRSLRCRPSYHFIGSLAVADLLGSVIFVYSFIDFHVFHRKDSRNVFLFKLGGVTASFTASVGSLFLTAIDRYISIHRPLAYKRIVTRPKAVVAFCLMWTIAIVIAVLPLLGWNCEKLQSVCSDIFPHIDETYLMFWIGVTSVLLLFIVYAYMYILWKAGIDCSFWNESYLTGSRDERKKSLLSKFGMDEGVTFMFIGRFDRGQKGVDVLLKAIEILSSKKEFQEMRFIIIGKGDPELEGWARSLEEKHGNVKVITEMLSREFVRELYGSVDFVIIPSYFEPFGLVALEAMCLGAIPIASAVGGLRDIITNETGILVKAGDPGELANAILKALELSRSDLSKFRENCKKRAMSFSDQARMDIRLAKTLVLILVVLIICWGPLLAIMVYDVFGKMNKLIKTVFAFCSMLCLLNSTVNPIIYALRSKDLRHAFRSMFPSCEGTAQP

C[C@H](NC(=O)C(C)(C)Oc1ccc(C(F)(F)F)cn1)[C@@H](Cc1ccc(Cl)cc1)c1cccc(C#N)c1 [taranabant, N-[(1S,2S)-3-(4-chlorophenyl)-2-(3-cyanophenyl)-1-methylpropyl]-2-methyl-2-{[5-(trifluoromethyl)pyridin-2-yl]oxy}propanamide]
effect on receptor thermostability (DSF) (CB1-PGS): enhanced thermostability
pKi (CB1): 9.89
pKi (CB2): 6.77

— article PMC5433929, “High-resolution crystal structure of the human CB1 cannabinoid receptor” (Nature, 2016)
